# Test results published in patent US20260053777A1, “USE OF NRF2 ACTIVATORS FOR THE TREATMENT OF CEREBRAL SMALL VESSEL DISEASE” (INSTITUT NATIONAL DE LA SANTÉ ET DE LA RECHERCHE MÉDICALE, priority 2022, published 2026).
# Tests used:
# [1] = system: Human brain microvascular endothelial cells (HBMEC); experiment: Cellrox Green detection of oxidative stress in HBMEC treated with control or TRIM47 siRNA and Luperox; format: cell-based; settings: Luperox, pre-treatment with tBHQ
# Description: Human brain microvascular endothelial cells (HBMEC) were treated with control or TRIM47 siRNA and with/without Luperox (inducer of oxidative stress) and incubated with Cellrox Green dye (detection of oxidative stress).
# [2] = system: Nrf2 and its target genes; experiment: qPCR screening of Nrf2 and its target genes on brain endothelial cells isolated from adult mice with/without tBHQ diet; format: in vivo
# [3] = system: Trim47 −/− adult mice; experiment: Water maze behavioural test on adult mice with/without a diet with tBHQ; format: in vivo
# Description: FIG. 4. TRIM47 is essential to brain physiology by promoting the NRF2 antioxidant protective system. […] B. RNA-sequencing was performed on HBMEC treated with control or TRIM47 siRNA. C. Assessment of blood brain barrier (BBB) permeability was done on Trim47 +/+ and Trim47 −/− adult mice. Mann-Whitney test. D. Representative image by immunofluorescence of GFAP expression (activated astrocytes) in brain sections from Trim47 +/+ and Trim47 −/− adult mice. E. Water maze behavioural test performed on adult mice with/without a diet with tBHQ. Two-way ANOVA with repeated measures. […] Latency to reach platform is shown for the 4 training days (FIG. 4E).
# [4] = system: NRF2; experiment: Rescue of the effect of TRIM47 knockdown by activation of NRF2 at the protein level (FIG. 3); format: cell-based, human; settings: tBHQ stabilizing NRF2 protein
# Source text: FIG. 3. […] Methods. TRIM47 interacting effectors were searched by proximity labeling assay (BioID) in human brain EC. TRIM47 knockdown in EC allowed to explore TRIM47 role in functional assays, and to identify transcriptional response by RNA-sequencing.
# [5] = Trim47 KO mice, brain EC, +tBHQ diet (1% W/W, 1 month), mean of n = 5
# [6] = Trim47 WT mice, brain EC, +tBHQ diet (1% W/W, 1 month), mean of n = 5
smiles,measurement,setting,value
"CC(C)(C)c1cc(O)ccc1O [tBHQ, tert-butylhydroquinone]",Induction of oxidative stress (Cellrox Green dye),[1],reversed induction of oxidative stress
same,Relative gene expression fold change (normalized to Pecam1): Cdh5 (BBB integrity),[2]; [5],0.967
same,Relative gene expression fold change (normalized to Pecam1): Cldn5 (BBB integrity),[2]; [5],0.877
same,Relative gene expression fold change (normalized to Pecam1): Cldn11 (BBB integrity),[2]; [5],1.020
same,Relative gene expression fold change (normalized to Pecam1): Gclm (Nrf2 pathway),[2]; [5],1.009
same,Relative gene expression fold change (normalized to Pecam1): Hmox1 (Nrf2 pathway),[2]; [5],1.095
same,Relative gene expression fold change (normalized to Pecam1): Keap1 (Nrf2 pathway),[2]; [5],0.730
same,Relative gene expression fold change (normalized to Pecam1): Me1 (Nrf2 pathway),[2]; [5],1.148
same,Relative gene expression fold change (normalized to Pecam1): Nfe2l2 (Nrf2 pathway),[2]; [5],1.040
same,Relative gene expression fold change (normalized to Pecam1): Nqo1 (Nrf2 pathway),[2]; [5],1.084
same,Relative gene expression fold change (normalized to Pecam1): Ocln (BBB integrity),[2]; [5],0.895
same,Relative gene expression fold change (normalized to Pecam1): Slc7a11 (Nrf2 pathway),[2]; [5],1.145
same,Relative gene expression fold change (normalized to Pecam1): Cdh5 (BBB integrity),[2]; [6],1.013
same,Relative gene expression fold change (normalized to Pecam1): Cldn5 (BBB integrity),[2]; [6],1.071
same,Relative gene expression fold change (normalized to Pecam1): Cldn11 (BBB integrity),[2]; [6],1.016
same,Relative gene expression fold change (normalized to Pecam1): Gclm (Nrf2 pathway),[2]; [6],0.999
same,Relative gene expression fold change (normalized to Pecam1): Hmox1 (Nrf2 pathway),[2]; [6],1.033
same,Relative gene expression fold change (normalized to Pecam1): Keap1 (Nrf2 pathway),[2]; [6],1.014
same,Relative gene expression fold change (normalized to Pecam1): Me1 (Nrf2 pathway),[2]; [6],1.033
same,Relative gene expression fold change (normalized to Pecam1): Nfe2l2 (Nrf2 pathway),[2]; [6],1.007
same,Relative gene expression fold change (normalized to Pecam1): Nqo1 (Nrf2 pathway),[2]; [6],1.033
same,Relative gene expression fold change (normalized to Pecam1): Ocln (BBB integrity),[2]; [6],1.025
same,Relative gene expression fold change (normalized to Pecam1): Slc7a11 (Nrf2 pathway),[2]; [6],1.030
same,Relative gene expression fold change (normalized to Pecam1): Trim47,[2]; [6],1.066
same,"Impairment of the Nrf2 pathway in Trim47 −/− mice (qPCR, brain endothelial cells)","[2]; Trim47 −/− adult mice, 1-month diet with tBHQ (1% W/W)",prevented
same,"Cognitive impairment in water maze (latency to reach platform, 4 training days)",[3],prevent cognitive impairment
same,Effect of TRIM47 knockdown (FIG. 3),[4],partly rescues the effect of TRIM47 knockdown
